Measured values taken from PubChem BioAssay AID330 (DTP/NCI, 2004).
Toxic doses and inconclusive results are not listed.

System: P388 leukemia ip, CD2F1 mice, survival T/C
Assay: NCI In Vivo Anticancer Drug Screen. Data for tumor model P388 Leukemia (intraperitoneal) in CD2F1 (CDF1) mice
Details: endpoint: median survival time, higher = longer survival
Procedure, shortened: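 Mice carrying the transplanted tumor received test compound or vehicle. Survival was recorded in each group, and the value is the treated-group measurement divided by that of the vehicle-treated control group.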

[1] = dose: 100.0 mg/kg/injection, schedule: Q04DX003 (ip), vehicle: saline with Tween-80
[2] = dose: 50.0 mg/kg/injection, schedule: Q01DX005 (ip), vehicle: saline with Tween-80
[3] = dose: 100.0 mg/kg/injection, schedule: Q01DX005 (ip), vehicle: saline with Tween-80
[4] = dose: 200.0 mg/kg/injection, schedule: Q01DX005 (ip), vehicle: saline with Tween-80
[5] = dose: 50.0 mg/kg/injection, schedule: Q01DX009 (ip), vehicle: saline
[6] = dose: 100.0 mg/kg/injection, schedule: Q01DX009 (ip), vehicle: saline
[7] = dose: 200.0 mg/kg/injection, schedule: Q01DX009 (ip), vehicle: saline
[8] = dose: 12.5 mg/kg/injection, schedule: Q01DX009 (ip), vehicle: Klucel (hydroxypropylcellulose) (HPC)
[9] = dose: 25.0 mg/kg/injection, schedule: Q01DX009 (ip), vehicle: Klucel (hydroxypropylcellulose) (HPC)
[10] = dose: 50.0 mg/kg/injection, schedule: Q01DX009 (ip), vehicle: Klucel (hydroxypropylcellulose) (HPC)
[11] = dose: 100.0 mg/kg/injection, schedule: Q01DX009 (ip), vehicle: Klucel (hydroxypropylcellulose) (HPC)
[12] = dose: 60.0 mg/kg/injection, schedule: Q01DX005 (ip), vehicle: saline with Tween-80
[13] = dose: 120.0 mg/kg/injection, schedule: Q01DX005 (ip), vehicle: saline with Tween-80
[14] = dose: 240.0 mg/kg/injection, schedule: Q01DX005 (ip), vehicle: saline with Tween-80
[15] = dose: 100.0 mg/kg/injection, schedule: Q04DX002 (ip), vehicle: Klucel (hydroxypropylcellulose) (HPC)
[16] = dose: 200.0 mg/kg/injection, schedule: Q04DX002 (ip), vehicle: Klucel (hydroxypropylcellulose) (HPC)
[17] = dose: 400.0 mg/kg/injection, schedule: Q04DX002 (ip), vehicle: Klucel (hydroxypropylcellulose) (HPC)
[18] = dose: 200.0 mg/kg/injection, schedule: Q01DX009 (ip), vehicle: Klucel (hydroxypropylcellulose) (HPC)

COc1cc2c(cc1C1CCCCCc3c1[nH]c1ccccc31)C1CCCCC1N2C (stereo unspecified)
T/C (dose: 12.5 mg/kg/injection, schedule: Q01DX001 (ip), vehicle: distilled water + Tween-80): 100 % of control | T/C (dose: 25.0 mg/kg/injection, schedule: Q01DX001 (ip), vehicle: distilled water + Tween-80): 100 % of control | T/C (dose: 50.0 mg/kg/injection, schedule: Q01DX001 (ip), vehicle: distilled water + Tween-80): 100 % of control | T/C (dose: 100.0 mg/kg/injection, schedule: Q01DX001 (ip), vehicle: distilled water + Tween-80): 95 % of control | T/C (dose: 200.0 mg/kg/injection, schedule: Q01DX001 (ip), vehicle: distilled water + Tween-80): 91 % of control

C[C@@H]1C[C@@]2(C)[C@@H](CC[C@@H]3[C@@H]2CC[C@@]2(C)[C@H]3CC[C@]2(C)O)CC1=O
T/C (dose: 25.0 mg/kg/injection, schedule: Q01DX009 (ip), vehicle: saline sonified): 95 % of control | T/C (dose: 25.0 mg/kg/injection, schedule: Q04DX003 (ip), vehicle: saline with Tween-80): 100 % of control | T/C (dose: 50.0 mg/kg/injection, schedule: Q01DX009 (ip), vehicle: saline sonified): 86 % of control | T/C (dose: 50.0 mg/kg/injection, schedule: Q04DX003 (ip), vehicle: saline with Tween-80): 100 % of control | T/C (dose: 100.0 mg/kg/injection, schedule: Q01DX009 (ip), vehicle: saline sonified): 95 % of control | T/C [1]: 100 % of control

CCOC(=O)C1CSC2(CC(C)CC(C)(C)C2)N1 (stereo unspecified)
T/C [2]: 106 % of control | T/C [3]: 107 % of control | T/C [4]: 104 % of control

c1cnc2c(c1)-n1cccc1C1(CCCCC1)NN2
T/C (dose: 100.0 mg/kg/injection, schedule: Q01DX001 (ip), vehicle: saline with Tween-80): 108 % of control | T/C (dose: 200.0 mg/kg/injection, schedule: Q01DX001 (ip), vehicle: saline with Tween-80): 93 % of control | T/C (dose: 400.0 mg/kg/injection, schedule: Q01DX001 (ip), vehicle: saline with Tween-80): 93 % of control

CCCCCCCCCCCCCCCCOc1ccc(C(=O)O)cc1S(=O)(=O)N/N=c1/sc2cc(Cl)cc(Cl)c2n1C
T/C [5]: 88 % of control | T/C [6]: 93 % of control | T/C [7]: 86 % of control

Clc1ccc(C2=NNC(c3ccc(Cl)cc3)=NN2)cc1
T/C (dose: 60.0 mg/kg/injection, schedule: Q01DX005 (ip), vehicle: Klucel (hydroxypropylcellulose) (HPC)): 103 % of control | T/C (dose: 120.0 mg/kg/injection, schedule: Q01DX005 (ip), vehicle: Klucel (hydroxypropylcellulose) (HPC)): 102 % of control | T/C (dose: 240.0 mg/kg/injection, schedule: Q01DX005 (ip), vehicle: Klucel (hydroxypropylcellulose) (HPC)): 98 % of control

CC1(C)C(=O)N(Br)C(=O)N1Br
T/C [8]: 101 % of control | T/C [9]: 99 % of control | T/C [10]: 99 % of control | T/C [11]: 90 % of control

CS(=O)CCN=Cc1ccc(N=Nc2ccc(O)cc2)cc1 (stereo unspecified)
T/C [12]: 103 % of control | T/C [13]: 103 % of control | T/C [14]: 97 % of control

C=C(Br)c1ccc2c(c1)OCO2
T/C [12]: 106 % of control | T/C [13]: 102 % of control | T/C [14]: 102 % of control

CC[C@@H]1C[C@@H]2CN3CCc4c([nH]c5ccc(OC)cc45)C(COC(=O)c4ccc(OC)c(OC)c4)(C2)C13
T/C (dose: 0.5 mg/kg/injection, schedule: Q01DX009 (ip), vehicle: Klucel (hydroxypropylcellulose) (HPC)): 102 % of control | T/C (dose: 1.0 mg/kg/injection, schedule: Q01DX009 (ip), vehicle: Klucel (hydroxypropylcellulose) (HPC)): 104 % of control | T/C (dose: 2.0 mg/kg/injection, schedule: Q01DX009 (ip), vehicle: Klucel (hydroxypropylcellulose) (HPC)): 108 % of control | T/C (dose: 4.0 mg/kg/injection, schedule: Q01DX009 (ip), vehicle: Klucel (hydroxypropylcellulose) (HPC)): 102 % of control

CCCn1cnc(C(=O)OC)c1O (tested in a mixture with another compound)
T/C (dose: 100.0 mg/kg/injection, schedule: Q04DX002 (ip), vehicle: water): 101 % of control | T/C (dose: 200.0 mg/kg/injection, schedule: Q04DX002 (ip), vehicle: water): 104 % of control | T/C (dose: 400.0 mg/kg/injection, schedule: Q04DX002 (ip), vehicle: water): 101 % of control

Cc1cc2c(cc1C)C(O)(C#Cc1ccccc1)c1c(C)ccc(C)c1C2=O (stereo unspecified)
T/C [1]: 100 % of control | T/C (dose: 200.0 mg/kg/injection, schedule: Q04DX003 (ip), vehicle: saline with Tween-80): 100 % of control | T/C (dose: 400.0 mg/kg/injection, schedule: Q04DX003 (ip), vehicle: saline with Tween-80): 97 % of control

COc1cc2ccc(CCNCc3ccccc3)cc2cc1OC
T/C [8]: 95 % of control | T/C [9]: 94 % of control | T/C [10]: 95 % of control | T/C [11]: 90 % of control

Cc1cc(N)nc(=O)n1COCCOCc1ccccc1
T/C [15]: 103 % of control | T/C [16]: 106 % of control | T/C [17]: 98 % of control

C=C(C)c1nc(N)nc(-c2ccc(OC)cc2)n1
T/C [15]: 98 % of control | T/C [16]: 94 % of control | T/C [17]: 93 % of control

CCN(CC)CCOC(=O)C(C1CCCCC1)C1(O)CCCCCC1 (stereo unspecified)
T/C [2]: 104 % of control | T/C [3]: 102 % of control | T/C [4]: 95 % of control

Cc1ncc[nH]1
T/C [5]: 90 % of control | T/C [6]: 92 % of control | T/C [7]: 89 % of control

O=S(=O)(CBr)OCCCl
T/C [2]: 120 % of control | T/C (dose: 150.0 mg/kg/injection, schedule: Q01DX005 (ip), vehicle: saline with Tween-80): 159 % of control | T/C [4]: 200 % of control

CCOC(=O)c1[nH]c(C#N)c(C(=O)OCC)c1C
T/C (dose: 100.0 mg/kg/injection, schedule: Q01DX009 (ip), vehicle: saline with Tween-80): 86 % of control | T/C (dose: 200.0 mg/kg/injection, schedule: Q01DX009 (ip), vehicle: saline with Tween-80): 96 % of control | T/C (dose: 400.0 mg/kg/injection, schedule: Q01DX009 (ip), vehicle: saline with Tween-80): 105 % of control

CC1=CC(=O)[C@@H](O)[C@]2(C)[C@H]3[C@@H](O)[C@H](O)[C@@]4(C)OC[C@@]35[C@@H](C[C@@H]12)OC(=O)C[C@]54O
T/C (dose: 1.0 mg/kg/injection, schedule: Q01DX009 (ip), vehicle: saline): 115 % of control | T/C (dose: 8.0 mg/kg/injection, schedule: Q01DX009 (ip), vehicle: saline): 153 % of control

O=C(Nc1ccc(Cl)cc1C(F)(F)F)OCCCc1ccncc1
T/C [5]: 98 % of control | T/C [6]: 91 % of control | T/C [7]: 91 % of control

CC(=Nc1c[nH]c(=O)[nH]c1=O)c1ccccc1
T/C (dose: 100.0 mg/kg/injection, schedule: Q04DX002 (ip), vehicle: suspension in saline): 104 % of control | T/C (dose: 200.0 mg/kg/injection, schedule: Q04DX002 (ip), vehicle: suspension in saline): 101 % of control | T/C (dose: 400.0 mg/kg/injection, schedule: Q04DX002 (ip), vehicle: suspension in saline): 94 % of control

O=[N+]([O-])c1ccccc1S(=O)(=O)N(CCCCN(S(=O)(=O)c1ccccc1[N+](=O)[O-])S(=O)(=O)c1ccccc1[N+](=O)[O-])S(=O)(=O)c1ccccc1[N+](=O)[O-]
T/C [12]: 93 % of control | T/C [13]: 91 % of control | T/C [14]: 87 % of control

CCn1c(=O)c2[nH]c(=S)[nH]c2n(CC)c1=O
T/C (dose: 16.0 mg/kg/injection, schedule: Q01DX009 (ip), vehicle: Klucel (hydroxypropylcellulose) (HPC)): 108 % of control | T/C (dose: 32.0 mg/kg/injection, schedule: Q01DX009 (ip), vehicle: Klucel (hydroxypropylcellulose) (HPC)): 104 % of control | T/C [10]: 105 % of control | T/C (dose: 64.0 mg/kg/injection, schedule: Q01DX009 (ip), vehicle: Klucel (hydroxypropylcellulose) (HPC)): 107 % of control | T/C [11]: 95 % of control | T/C [18]: 102 % of control

N#CC(OC(OC(C#N)c1ccccc1)c1ccccc1)c1ccccc1 (stereo unspecified)
T/C [12]: 98 % of control | T/C [13]: 94 % of control | T/C [14]: 89 % of control

Cc1c(C)[n+](=O)c2ccccc2n1[O-]
T/C (dose: 50.0 mg/kg/injection, schedule: Q01DX005 (ip), vehicle: saline): 103 % of control | T/C (dose: 100.0 mg/kg/injection, schedule: Q01DX005 (ip), vehicle: saline): 108 % of control | T/C (dose: 200.0 mg/kg/injection, schedule: Q01DX005 (ip), vehicle: saline): 100 % of control

CC(C)(C)C(=O)Nc1ccc(S(=O)(=O)Nc2ccc(N)cc2O)cc1
T/C [10]: 112 % of control | T/C [11]: 97 % of control | T/C [18]: 115 % of control
